# Source: ChEMBL document CHEMBL3046511, “Controlling Efficacy of Strobilurin Derivatives against Wheat Powdery Mildew and Eyespot” (J Pestic Sci, 2002)
# Tests used:
# Oculimacula yallundae [1] = test: Fungicidal activity against W-type Oculimacula yallundae assessed as inhibition of mycelial growth at 20 degC for 14 days; assay type: functional, organism-based; conditions: for MIC: Oculimacula yallundae, 336 h
# Oculimacula yallundae [2] = test: Fungicidal activity against W-type Oculimacula yallundae assessed as inhibition of mycelial growth at 20 degC for 14 days in presence of 50 ppm flovone; assay type: functional, organism-based; conditions: for MIC: Oculimacula yallundae, 336 h
# [3] = test system: Blumeria graminis f. sp. tritici; test: Fungicidal activity against Blumeria graminis f. sp. tritici in 2 weeks old wheat seedlings assessed as control of powdery mildew pretreated 24 hr before by foliar application at 22 +/- 2 degC under greenhouse and leaf area measured after 10 days of inoculation; assay type: functional, organism-based
# [4] = test system: Blumeria graminis f. sp. tritici; test: Fungicidal activity against Blumeria graminis f. sp. tritici in 2 weeks old wheat seedlings assessed as control of powdery mildew at 0.125 ppm pretreated 24 hr before by foliar application at 22 +/- 2 degC under greenhouse and leaf area measured after 10 days of inoculation; assay type: functional
# [5] = test system: Blumeria graminis f. sp. tritici; test: Fungicidal activity against Blumeria graminis f. sp. tritici in 2 weeks old wheat seedlings assessed as control of powdery mildew at 0.5 ppm pretreated 24 hr before by foliar application at 22 +/- 2 degC under greenhouse and leaf area measured after 10 days of inoculation; assay type: functional
# [6] = test system: Blumeria graminis f. sp. tritici; test: Fungicidal activity against Blumeria graminis f. sp. tritici in 2 weeks old wheat seedlings assessed as control of powdery mildew at 2 ppm pretreated 24 hr before by foliar application at 22 +/- 2 degC under greenhouse and leaf area measured after 10 days of inoculation; assay type: functional
# [7] = test system: Blumeria graminis f. sp. tritici; test: Fungicidal activity against Blumeria graminis f. sp. tritici in 2 weeks old wheat seedlings assessed as control of powdery mildew at 7.8 ppm pretreated 24 hr before by foliar application at 22 +/- 2 degC under greenhouse and leaf area measured after 10 days of inoculation; assay type: functional
# [8] = test system: Blumeria graminis f. sp. tritici; test: Fungicidal activity against Blumeria graminis f. sp. tritici in 2 weeks old wheat seedlings assessed as control of powdery mildew at 31.3 ppm pretreated 24 hr before by foliar application at 22 +/- 2 degC under greenhouse and leaf area measured after 10 days of inoculation; assay type: functional
# [9] = test system: Blumeria graminis f. sp. tritici; test: Fungicidal activity against Blumeria graminis f. sp. tritici in 2 weeks old wheat seedlings assessed as control of powdery mildew at 125 ppm pretreated 24 hr before by foliar application at 22 +/- 2 degC under greenhouse and leaf area measured after 10 days of inoculation; assay type: functional
# Podosphaera fuliginea [10] = test: Fungicidal activity against Podosphaera fuliginea in cucumber cotyledon assessed as control of powdery mildew measured as width inhibition at 2 ppm treated 24 hr inoculation at 22 +/- 2 degC measured after 10 days by vapour-phase activity test; assay type: functional
# Podosphaera fuliginea [11] = test: Fungicidal activity against Podosphaera fuliginea in cucumber cotyledon assessed as control of powdery mildew measured as width inhibition at 7.8 ppm treated 24 hr inoculation at 22 +/- 2 degC measured after 10 days by vapour-phase activity test; assay type: functional
# Podosphaera fuliginea [12] = test: Fungicidal activity against Podosphaera fuliginea in cucumber cotyledon assessed as control of powdery mildew measured as length inhibition at 2 ppm treated 24 hr inoculation at 22 +/- 2 degC measured after 10 days by vapour-phase activity test; assay type: functional
# Podosphaera fuliginea [13] = test: Fungicidal activity against Podosphaera fuliginea in cucumber cotyledon assessed as control of powdery mildew measured as length inhibition at 7.8 ppm treated 24 hr inoculation at 22 +/- 2 degC measured after 10 days by vapour-phase activity test; assay type: functional
# [14] = test system: Blumeria graminis f. sp. tritici; test: Fungicidal activity against Blumeria graminis f. sp. tritici in 2 weeks old wheat seedlings assessed as control of powdery mildew at 0.06 ppm pretreated 24 hr before by foliar application at 22 +/- 2 degC under greenhouse and leaf area measured after 10 days of inoculation; assay type: functional
smiles,measurement,setting,value
COC(=O)NC(=S)Nc1ccccc1NC(=S)NC(=O)OC [THIOPHANATE METHYL],EC50,Oculimacula yallundae [1],1.18 ppm
same,MIC,Oculimacula yallundae [1],25 µg/mL
CO/C=C(/C(=O)OC)c1ccccc1Oc1cc(Oc2ccccc2C#N)ncn1 [AZOXYSTROBIN],EC50,Oculimacula yallundae [2],0.41 ppm
same,MIC,Oculimacula yallundae [2],25 µg/mL
same,EC50,Oculimacula yallundae [1],3.2 ppm
same,MIC,Oculimacula yallundae [1],< 125 µg/mL
same,EC50,[3],1.39 ppm
same,Activity,[4],5%
same,Activity,[5],35%
same,Activity,[6],64%
same,Activity,[7],85%
same,Activity,[8],87%
same,Activity,[9],95%
CO/N=C(/C(=O)OC)c1ccccc1COc1ccccc1C [KRESOXIM-METHYL],INH,Podosphaera fuliginea [10],13.5 mm
same,INH,Podosphaera fuliginea [11],<20 mm
same,EC50,Oculimacula yallundae [2],0.11 ppm
same,MIC,Oculimacula yallundae [2],5 µg/mL
same,EC50,Oculimacula yallundae [1],0.79 ppm
same,MIC,Oculimacula yallundae [1],< 125 µg/mL
same,INH,Podosphaera fuliginea [12],12.7 mm
same,INH,Podosphaera fuliginea [13],<20 mm
same,EC50,[3],0.95 ppm
same,Activity,[4],14%
same,Activity,[5],39%
same,Activity,[6],68%
same,Activity,[7],86%
same,Activity,[8],92%
same,Activity,[9],100%
CNC(=O)/C(=N/OC)c1ccccc1Oc1cc(C)ccc1C,EC50,Oculimacula yallundae [2],0.03 ppm
same,MIC,Oculimacula yallundae [2],1 µg/mL
same,EC50,Oculimacula yallundae [1],0.13 ppm
same,MIC,Oculimacula yallundae [1],< 125 µg/mL
same,EC50,[3],0.07 ppm
same,Activity,[14],22%
same,Activity,[4],79%
same,Activity,[5],94%
same,Activity,[6],98%
same,Activity,[7],100%
same,Activity,[8],100%
CNC(=O)/C(=N/OC)c1ccccc1Oc1ncc(Cl)cc1C(F)(F)F,INH,Podosphaera fuliginea [11],10.7 mm
same,EC50,Oculimacula yallundae [2],0.08 ppm
same,MIC,Oculimacula yallundae [2],1 µg/mL
same,EC50,Oculimacula yallundae [1],0.33 ppm
same,MIC,Oculimacula yallundae [1],< 125 µg/mL
same,INH,Podosphaera fuliginea [13],8.9 mm
same,EC50,[3],0.05 ppm
same,Activity,[14],50%
same,Activity,[4],60%
same,Activity,[5],89%
same,Activity,[6],96%
same,Activity,[7],100%
same,Activity,[8],100%
OC(c1ccc(Cl)cc1)(c1cncnc1)c1ccccc1Cl (stereo unspecified) [FENARIMOL],EC50,Oculimacula yallundae [1],1.02 ppm
same,MIC,Oculimacula yallundae [1],25 µg/mL
same,EC50,[3],0.58 ppm
same,Activity,[4],0%
same,Activity,[5],50%
same,Activity,[6],84%
same,Activity,[7],94%
same,Activity,[8],98%
same,Activity,[9],98%
CC(C)(C)C(=O)C(Oc1ccc(Cl)cc1)n1cncn1 (stereo unspecified) [TRIADIMEFON],INH,Podosphaera fuliginea [11],<20 mm
same,EC50,Oculimacula yallundae [1],7.81 ppm
same,MIC,Oculimacula yallundae [1],< 125 µg/mL
same,INH,Podosphaera fuliginea [13],<20 mm
same,EC50,[3],1.6 ppm
same,Activity,[4],0%
same,Activity,[5],30%
same,Activity,[6],57%
same,Activity,[7],82%
same,Activity,[8],94%
same,Activity,[9],99%
CCCN(CCOc1c(Cl)cc(Cl)cc1Cl)C(=O)n1ccnc1 [PROCHLORAZ],EC50,Oculimacula yallundae [1],0.06 ppm
same,MIC,Oculimacula yallundae [1],5 µg/mL
same,EC50,[3],3.39 ppm
same,Activity,[4],0%
same,Activity,[5],23%
same,Activity,[6],57%
same,Activity,[7],70%
same,Activity,[8],70%
same,Activity,[9],92%
